# Experiments:
# BALB/c mouse = assay: Evaluation of in vivo gene expression (luciferase mRNA-encapsulating LNP, IVIS of isolated organs); conditions: for relative value based on Comparative Example (amount of luminescence in spleen): relative to O-Ph-P4C2 LNP = 1.00; for amount of luminescence in each organ: heart / amount of luminescence in each organ: kidney / amount of luminescence in each organ: liver / amount of luminescence in each organ: lung / amount of luminescence in each organ: spleen: tail vein, mRNA 0.05 mg/kg, 4.5 hr + 15 min after administration; for amount of luminescence in each organ: spleen: spleen (Table 7); for gene expression activity in the spleen compared to Comparative Example: result in words
# Method: LNP encapsulating mRNA that expresses luciferase (cationic lipid:DOPC:Chol:DMG-PEG2k=55:5:40:1 (molar ratio)) was prepared by the method described in [Experimental Example 2], 1.
# The prepared each mRNA-encapsulating LNP dispersion was administered from the tail vein of BALB/c mouse (male, 5-week-old). The dose of mRNA was set to 0.05 mg per 1 kg body weight of the mouse, and the dose of the mRNA-encapsulating LNP dispersion was set to 10 μL per 1 g body weight of the mouse. After 4.5 hr from the administration of the mRNA-encapsulating LNP dispersion, a PBS solution of D-luciferin potassium was administered into the abdominal cavity of the mouse. The dose of D-luciferin potassium was set to 3 mg per mouse, and the dose of the PBS solution of D-luciferin potassium was set to 200 μL per mouse. After 15 min from the administration of the PBS solution of D-luciferin potassium, the mouse was euthanized, and the liver, spleen, kidney, heart, and lung were isolated. The luminescence in each organ was quantified using an in vivo imaging system (IVIS) with an exposure of 10 sec. The amount of luminescence in each organ was quantified by image analysis using Live Imaging software attached to IVIS. The amount of luminescence (photons/sec) was calculated from the acquired image and used as an index of gene expression activity. “E+0a” (a: integer) indicated in Table 7 and Table 8 means “10^a”. For example, “1.0E+02” means “1.0×10^2”. In Comparative Example, the cationic lipid described in the aforementioned Table 3 were used.
# [1] = Particle size, PdI and zeta potential of mRNA-encapsulating LNPs (dynamic light scattering); assay type: physicochemical; conditions: mRNA-encapsulating LNP, cationic lipid:DOPC:Chol=55:5:40 + about 1 mol DMG-PEG2k; for PdI / particle size: dynamic light scattering; for zeta potential: physiological pH
# Outline: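 LNPs were made from cationic lipid:DOPC:Chol at 55:5:40 molar ratio plus about 1 mol DMG-PEG2k, microfluidically mixed with mRNA in malate buffer (20 mM, pH 3.0, 30 mM NaCl). They were ultrafiltered into PBS at 2 mM lipid. Size, PdI and zeta potential were measured by dynamic light scattering.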
# HeLa cells = assay: Evaluation of in vitro gene expression in HeLa cell (luciferase mRNA-encapsulating LNP); assay type: cell-based, human; conditions: for cumulative luciferase luminescence intensity over 24 hr: luciferase mRNA 0.4 μg per dish, LNP cationic lipid:DOPC:Chol:DMG-PEG2k=55:5:40:1; for gene expression activity compared to Comparative Example: result in words
# Outline: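 LNP (cationic lipid:DOPC:Chol:DMG-PEG2k=55:5:40:1) carrying luciferase mRNA, 0.4 μg mRNA per 3.5 cm dish, added to HeLa cells in D-MEM with 0.1 mM D-luciferin. Luminescence read 2 min every hour in an incubator luminometer; value is cumulative luminescence over 24 hr.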
# [2] = Measurement of Liposomal pKa of LNP (TNS fluorescence); assay type: physicochemical; conditions: LNP without nucleic acid, cationic lipid:DOPC:Chol=52.5:7.5:40 + about 1.5 mol DMG-PEG2k; pH at which relative TNS fluorescence intensity was 50%
# Outline: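 Nucleic-acid-free LNPs (cationic lipid:DOPC:Chol 52.5:7.5:40, ~1.5 mol DMG-PEG2k) prepared by microfluidic mixing, diluted to 0.5 mM lipid, mixed with TNS in 150 mM NaCl buffers spanning pH 3.0–10.0. Fluorescence at ex 321/em 447 nm normalised 0–100% per LNP; pKa is the pH at 50%.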
SMILES,PdI [1],particle size [1] [nm],zeta potential [1] [mV],pKa [2],relative value based on Comparative Example (amount of luminescence in spleen) (BALB/c mouse),amount of luminescence in each organ: heart (BALB/c mouse) [photons/sec],amount of luminescence in each organ: kidney (BALB/c mouse) [photons/sec],amount of luminescence in each organ: liver (BALB/c mouse) [photons/sec],amount of luminescence in each organ: lung (BALB/c mouse) [photons/sec],amount of luminescence in each organ: spleen (BALB/c mouse) [photons/sec],cumulative luciferase luminescence intensity over 24 hr (HeLa cells) [RLU],gene expression activity compared to Comparative Example (HeLa cells),gene expression activity in the spleen compared to Comparative Example (BALB/c mouse)
CCCCCCCCCCCCCC(=O)OCC(C)(COC(=O)CCCCCCCCCCCCC)C(=O)Oc1ccc(CC(=O)OCCSSCCOC(=O)NCCN(CC)CC)cc1 [Example 31],0.072,59,4.1,7.6,1.74,7.26E+05,5.53E+05,2.62E+07,9.16E+05,1.88E+07,1.58E+08,superior gene expression activity,superior gene expression activity
CCCCCCCC/C=C\CCCCCCCC(=O)OCC(C)(COC(=O)CCCCCCC/C=C\CCCCCCCC)C(=O)Oc1ccc(CC(=O)OCCSSCCOC(=O)NCCN(CC)CC)cc1 [Example 34],0.060,63,0.4,7.2,1.27,6.83E+05,5.04E+05,2.52E+07,6.02E+05,1.37E+07,1.08E+08,superior gene expression activity,superior gene expression activity
CCCCC/C=C\C/C=C\CCCCCCCC(=O)OCC(C)(COC(=O)CCCCCCC/C=C\C/C=C\CCCCC)C(=O)Oc1ccc(CC(=O)OCCSSCCOC(=O)NCCN(CC)CC)cc1 [Example 35],0.068,70,−4.0,6.8,0.37,6.31E+05,3.94E+05,1.35E+07,4.65E+05,4.03E+06,6.34E+07,superior gene expression activity,
CCCCCCCC/C=C\CCCCCCCC(=O)OCC(C)(COC(=O)CCCCCCC/C=C\CCCCCCCC)C(=O)Oc1ccc(CC(=O)OCCSSCCOC(=O)NCCN(C)CCO)cc1 [Example 36],0.090,92,−2.5,7.3,0.19,9.67E+05,6.33E+05,2.33E+06,8.67E+05,2.00E+06,7.66E+07,superior gene expression activity,

# Second part, led by results:
PdI [1],particle size [1] [nm],zeta potential [1] [mV],pKa [2],SMILES,relative value based on Comparative Example (amount of luminescence in spleen) (BALB/c mouse),amount of luminescence in each organ: heart (BALB/c mouse) [photons/sec],amount of luminescence in each organ: kidney (BALB/c mouse) [photons/sec],amount of luminescence in each organ: liver (BALB/c mouse) [photons/sec],amount of luminescence in each organ: lung (BALB/c mouse) [photons/sec],amount of luminescence in each organ: spleen (BALB/c mouse) [photons/sec],cumulative luciferase luminescence intensity over 24 hr (HeLa cells) [RLU],gene expression activity compared to Comparative Example (HeLa cells),gene expression activity in the spleen compared to Comparative Example (BALB/c mouse)
0.109,96,12.2,8.2,CCCCCCCCCCCCCCCCC(CCCCCCCCCCCCCCCC)C(=O)Oc1ccc(CC(=O)OCCSSCCOC(=O)N(C)CCCN(C)C)cc1 [Example 24],0.05,4.78E+05,4.84E+05,5.08E+05,5.58E+05,5.09E+05,6.22E+07,superior gene expression activity,
0.126,78,14.7,8.6,CCCCCCCCCCCCCCCCC(CCCCCCCCCCCCCCCC)C(=O)Oc1ccc(CC(=O)OCCSSCCOC(=O)NCCCCN(C)C)cc1 [Example 25],0.03,4.74E+05,3.63E+05,1.67E+05,2.74E+05,3.07E+05,1.25E+07,superior gene expression activity,
0.070,66,−1.4,6.7,CCCCCCCCCCCCCCCCC(CCCCCCCCCCCCCCCC)C(=O)Oc1ccc(CC(=O)OCCSSCCOC(=O)NCCN(C(C)C)C(C)C)cc1 [Example 28],0.16,6.88E+05,6.48E+05,9.90E+07,9.12E+05,1.68E+06,4.57E+07,superior gene expression activity,
0.080,59,1.2,6.7,CCCCCCCCCCCCCCCCC(CCCCCCCCCCCCCCCC)C(=O)Oc1ccc(CC(=O)OCCSSCCOC(=O)N(C)CCN(CC)CC)cc1 [Example 29],0.29,7.27E+05,6.29E+05,8.05E+07,7.49E+05,3.16E+06,1.75E+07,superior gene expression activity,
0.080,59,2.3,6.4,CCCCCCCCCCCCCCCCC(CCCCCCCCCCCCCCCC)C(=O)Oc1ccc(CC(=O)OCCSSCCOC(=O)OCCN(C)C)cc1 [Example 30],0.12,6.17E+05,3.80E+05,1.98E+07,5.26E+05,1.24E+06,1.35E+07,superior gene expression activity,

# Source: patent US20250213478A1, “CATIONIC LIPID HAVING DISULFIDE BOND, LIPID MEMBRANE STRUCTURE INCLUDING SAME, NUCLEIC ACID INTRODUCTION AGENT AND PHARMACEUTICAL COMPOSITION CONTAINING ANY ONE OF SAME, METHOD FOR INTRODUCING NUCLEIC ACID INTO CELL OR TARGET CELL, AND METHOD FOR PRODUCING CELLULAR PHARMACEUTICAL” (NOF Corporation, priority 2022, published 2025)
